Experimental findings from US20250115600A1, “COVALENT MODIFIERS OF AKT1 AND USES THEREOF” (Terremoto Biosciences, Inc., priority 2022, published 2025) are described below.

The IC50 is the concentration that inhibits the measured activity by half.

Common to all, as to assay: Live cell target engagement (NanoBRET) in HEK293 cells
Format in all cases: cell-based
Background: In BRET a luciferase serves as donor, and the signal depends on an acceptor being close.

One test concerns the target AKT1 E17K (Homo sapiens (Human), UniProt P31749, E17K). As to conditions: for IC50: HEK293, 2 hours at 37° C.
The target of a further test is AKT1 WT (Homo sapiens (Human), UniProt P31749). As to conditions: HEK293, 2 hours at 37° C.
For the next test, the target named is AKT2 (Homo sapiens (Human), UniProt P31751). As to conditions: HEK293, 2 hours at 37° C.

The structures appear in SMILES notation.

Sequence of AKT1 WT (P31749 whole entry): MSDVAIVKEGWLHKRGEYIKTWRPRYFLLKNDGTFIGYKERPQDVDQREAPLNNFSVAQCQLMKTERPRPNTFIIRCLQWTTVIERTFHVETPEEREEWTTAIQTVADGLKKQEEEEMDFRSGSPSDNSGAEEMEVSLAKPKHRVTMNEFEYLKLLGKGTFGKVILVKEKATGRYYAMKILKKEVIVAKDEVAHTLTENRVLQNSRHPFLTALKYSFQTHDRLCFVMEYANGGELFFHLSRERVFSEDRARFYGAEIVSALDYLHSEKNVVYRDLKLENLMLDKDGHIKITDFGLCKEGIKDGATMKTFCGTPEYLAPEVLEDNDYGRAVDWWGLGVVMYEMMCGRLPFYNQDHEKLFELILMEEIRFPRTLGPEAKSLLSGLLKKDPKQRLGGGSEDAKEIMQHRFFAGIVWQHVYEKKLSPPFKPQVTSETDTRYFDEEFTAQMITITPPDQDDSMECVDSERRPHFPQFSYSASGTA
Sequence of AKT2 (P31751 whole entry): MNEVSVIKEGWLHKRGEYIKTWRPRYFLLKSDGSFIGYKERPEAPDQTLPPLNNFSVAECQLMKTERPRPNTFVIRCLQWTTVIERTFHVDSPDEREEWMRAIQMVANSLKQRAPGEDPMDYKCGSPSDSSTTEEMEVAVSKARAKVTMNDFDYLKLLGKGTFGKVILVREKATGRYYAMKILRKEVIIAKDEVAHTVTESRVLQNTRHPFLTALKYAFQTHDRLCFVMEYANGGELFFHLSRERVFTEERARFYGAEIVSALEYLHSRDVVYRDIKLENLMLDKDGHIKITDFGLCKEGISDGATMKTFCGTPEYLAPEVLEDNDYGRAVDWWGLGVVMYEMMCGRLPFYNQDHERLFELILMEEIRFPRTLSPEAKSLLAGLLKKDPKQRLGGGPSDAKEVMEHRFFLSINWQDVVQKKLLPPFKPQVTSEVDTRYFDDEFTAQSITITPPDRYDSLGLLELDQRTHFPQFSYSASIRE
Sequence of AKT1 E17K (P31749 whole entry E17K): as the sequence (P31749 whole entry) above, with E17K counted along it

Regarding `Nc1ncccc1-c1nc2ccc(-c3ccccc3)nc2n1-c1ccc(CNC(=O)C(F)c2ccc(C=O)c(O)c2)cc1` (centres unmarked) [Compound 65, N-({4-[2-(2-aminopyridin-3-yl)-5-phenylimidazo[4,5-b]pyridin-3-yl]phenyl}methyl)-2-fluoro-2-(4-formyl-3-hydroxyphenyl)acetamide], at AKT1 E17K, the “AKT1 E17K IC50: Selectivity vs AKT1 WT” value came to 1.2, the “AKT1 E17K IC50: Selectivity vs AKT2” value is given as 37 and the half-maximal inhibitory concentration (IC50) was below 100 nM. The IC50 at AKT1 WT was below 100 nM. At AKT2, this compound yielded an IC50 of 100 to 500 nM.

For the compound `Nc1ncccc1-c1nc2ccc(C3CC3)nc2n1-c1ccc(CNC(=O)Cc2ccc(C=O)c(O)c2)cc1` [Compound 66, N-({4-[2-(2-aminopyridin-3-yl)-5-cyclopropylimidazo[4,5-b]pyridin-3-yl]phenyl}methyl)-2-(4-formyl-3-hydroxyphenyl)acetamide], at AKT1 E17K, the “AKT1 E17K IC50: Selectivity vs AKT1 WT” value was 3.5, the “AKT1 E17K IC50: Selectivity vs AKT2” value was 830 and the IC50 is below 100 nM. Further, on AKT1 WT, the half-inhibitory concentration (IC50) is below 100 nM. This compound also returned a concentration for half-maximal inhibition (IC50) against AKT2 above 500 nM.

Turning to `Nc1ncccc1-c1nc2ccc(-c3cccnc3)nc2n1-c1ccc(CNC(=O)C2(c3ccc(C=O)c(O)c3F)CC2)cc1` [Compound 67, N-(4-(2-(2-aminopyridin-3-yl)-5-(pyridin-3-yl)-3H-imidazo[4,5-b]pyridin-3-yl)benzyl)-1-(2-fluoro-4-formyl-3-hydroxyphenyl)cyclopropane-1-carboxamide], on AKT1 E17K, the “AKT1 E17K IC50: Selectivity vs AKT1 WT” value is 27, the “AKT1 E17K IC50: Selectivity vs AKT2” value is on record as above 240 and the half-inhibitory concentration (IC50) was below 100 nM. The same compound had a half-inhibitory concentration (IC50) against AKT1 WT above 500 nM. Also, the IC50 against AKT2 is above 500 nM.

On to `Nc1ncccc1-c1nc2ccc(-c3cccnc3)nc2n1-c1ccc(CNC(=O)Cc2ccc(C=O)c(O)c2)cc1` [Compound 68, N-(4-(2-(2-aminopyridin-3-yl)-5-(pyridin-3-yl)-3H-imidazo[4,5-b]pyridin-3-yl)benzyl)-2-(4-formyl-3-hydroxyphenyl)acetamide], for which, at AKT1 E17K, the “AKT1 E17K IC50: Selectivity vs AKT1 WT” value was found to be 4, the “AKT1 E17K IC50: Selectivity vs AKT2” value turned out to be 150 and the half-maximal inhibitory concentration (IC50) is below 100 nM. For the same compound, the half-inhibitory concentration (IC50) against AKT1 WT is below 100 nM. On AKT2, the IC50 is above 500 nM.

In the case of `Nc1ncccc1-c1nc2ccc(-c3ccccc3)nc2n1-c1ccc(CNC(=O)C2(c3ccc(C=O)c(O)c3)CC2)cc1` [Compound 69, N-({4-[2-(2-aminopyridin-3-yl)-5-phenylimidazo[4,5-b]pyridin-3-yl]phenyl}methyl)-1-(4-formyl-3-hydroxyphenyl)cyclopropane-1-carboxamide], at AKT1 E17K, the “AKT1 E17K IC50: Selectivity vs AKT1 WT” value stood at 16, the “AKT1 E17K IC50: Selectivity vs AKT2” value is reported as above 160 and the IC50 is below 100 nM. Moreover, the IC50 at AKT1 WT was above 500 nM. On AKT2, this compound came in with an IC50 above 500 nM.

Consider `Nc1ncccc1-c1nc2ccc(-c3cccnc3)nc2n1-c1ccc(CNC(=O)C2(c3ccc(C=O)c(O)c3)CC2)cc1` [Compound 70, N-({4-[2-(2-aminopyridin-3-yl)-5-(pyridin-3-yl)imidazo[4,5-b]pyridin-3-yl]phenyl}methyl)-1-(4-formyl-3-hydroxyphenyl)cyclopropane-1-carboxamide], for which, at AKT1 E17K, the “AKT1 E17K IC50: Selectivity vs AKT1 WT” value is listed as 7.7, the “AKT1 E17K IC50: Selectivity vs AKT2” value was 65 and the IC50 is below 100 nM. This compound also came in with an IC50 at AKT1 WT of 100 to 500 nM. Further, on AKT2, the IC50 is above 500 nM.

On to `Nc1ncccc1-c1nc2ccc(-c3cccnc3)nc2n1-c1ccc(CNC(=O)c2ccc(O)c(C=O)c2)cc1` [Compound 71, N-(4-(2-(2-aminopyridin-3-yl)-5-(pyridin-3-yl)-3H-imidazo[4,5-b]pyridin-3-yl)benzyl)-3-formyl-4-hydroxybenzamide], for which, at AKT1 E17K, the “AKT1 E17K IC50: Selectivity vs AKT1 WT” value is reported as 5.8, the “AKT1 E17K IC50: Selectivity vs AKT2” value was determined as 37 and the IC50 was below 100 nM. Moreover, the IC50 on AKT1 WT is below 100 nM. The half-maximal inhibitory concentration (IC50) against AKT2 fell in the range of 100 to 500 nM.

On to `COc1c(CCNCc2ccc(-n3c(-c4cccnc4N)nc4ccc(-c5ccccc5)nc43)cc2)ccc(C=O)c1O` [Compound 76, 4-{2-[({4-[2-(2-aminopyridin-3-yl)-5-phenylimidazo[4,5-b]pyridin-3-yl]phenyl}methyl)amino]ethyl}-2-hydroxy-3-methoxybenzaldehyde], for which, at AKT1 E17K, the “AKT1 E17K IC50: Selectivity vs AKT1 WT” value is recorded as 1.6, the “AKT1 E17K IC50: Selectivity vs AKT2” value amounted to 4.7 and the IC50 fell in the range of 100 to 500 nM. Moreover, at AKT1 WT, the IC50 was 100 to 500 nM. For the same compound, at AKT2, the IC50 lay in the range of 100 to 500 nM.

In the case of `Nc1ncccc1-c1nc2ccc(-c3ccccc3)nc2n1-c1ccc(CNC(=O)Cc2cnc(C=O)c(O)c2)cc1` [Compound 77, N-(4-(2-(2-aminopyridin-3-yl)-5-phenyl-3H-imidazo[4,5-b]pyridin-3-yl)benzyl)-2-(6-formyl-5-hydroxypyridin-3-yl)acetamide], at AKT1 E17K, the “AKT1 E17K IC50: Selectivity vs AKT1 WT” value amounted to 4.3, the “AKT1 E17K IC50: Selectivity vs AKT2” value is listed as 39 and the IC50 is below 100 nM. The same compound showed a half-maximal inhibitory concentration (IC50) at AKT1 WT of 100 to 500 nM. On AKT2, the IC50 was above 500 nM.

Consider `Nc1ncccc1-c1nc2cccnc2n1-c1ccc(CNC(=O)C(F)(F)c2ccc(C=O)c(O)c2)cc1` [Compound 78, N-(4-(2-(2-aminopyridin-3-yl)-3H-imidazo[4,5-b]pyridin-3-yl)benzyl)-2,2-difluoro-2-(4-formyl-3-hydroxyphenyl)acetamide], for which, at AKT1 E17K, the “AKT1 E17K IC50: Selectivity vs AKT1 WT” value came out at 2.2, the “AKT1 E17K IC50: Selectivity vs AKT2” value came out at 43 and the half-inhibitory concentration (IC50) is below 100 nM. Besides, the half-inhibitory concentration (IC50) at AKT1 WT fell in the range of 100 to 500 nM. This compound yielded a half-inhibitory concentration (IC50) against AKT2 above 500 nM.

`Nc1ncccc1-c1nc2ccc(-c3cccnc3)nc2n1-c1ccc(CNC(=O)Cc2ccc(C=O)c(O)c2F)cc1` [Compound 79, N-({4-[2-(2-aminopyridin-3-yl)-5-(pyridin-3-yl)imidazo[4,5-b]pyridin-3-yl]phenyl}methyl)-2-(2-fluoro-4-formyl-3-hydroxyphenyl)acetamide]: on AKT1 E17K, the “AKT1 E17K IC50: Selectivity vs AKT1 WT” value turned out to be 4.4, the “AKT1 E17K IC50: Selectivity vs AKT2” value was determined as 88 and the IC50 is below 100 nM. In addition, the 50% inhibitory concentration (IC50) against AKT1 WT is below 100 nM. This compound also yielded a concentration for half-maximal inhibition (IC50) against AKT2 above 500 nM.

Consider `Nc1ncccc1-c1nc2cccnc2n1-c1ccc(CNCCc2ccc(C=O)c(C(F)F)c2)cc1` [Compound 80, 4-{2-[({4-[2-(2-aminopyridin-3-yl)imidazo[4,5-b]pyridin-3-yl]phenyl}methyl)amino]ethyl}-2-(difluoromethyl)benzaldehyde], for which, on AKT1 E17K, the “AKT1 E17K IC50: Selectivity vs AKT1 WT” value turned out to be 0.47, the “AKT1 E17K IC50: Selectivity vs AKT2” value was 2.5 and the concentration for half-maximal inhibition (IC50) was in the range of 100 to 500 nM. In addition, at AKT1 WT, the concentration for half-maximal inhibition (IC50) is 100 to 500 nM. The compound further came in with a 50% inhibitory concentration (IC50) at AKT2 above 500 nM.

On to `Nc1ncccc1-c1nc2ccc(-c3ccccc3)nc2n1-c1ccc(CNc2cc(-c3ccc(O)c(C=O)c3)ccn2)cc1` [Compound 81, 5-(2-((4-(2-(2-aminopyridin-3-yl)-5-phenyl-3H-imidazo[4,5-b]pyridin-3-yl)benzyl)amino)pyridin-4-yl)-2-hydroxybenzaldehyde], for which, on AKT1 E17K, the “AKT1 E17K IC50: Selectivity vs AKT1 WT” value turned out to be 0.51, the “AKT1 E17K IC50: Selectivity vs AKT2” value came out at 1.7 and the 50% inhibitory concentration (IC50) was in the range of 100 to 500 nM. The IC50 at AKT1 WT was in the range of 100 to 500 nM. In addition, on AKT2, the IC50 was 100 to 500 nM.

In the case of `Nc1ncccc1-c1nc2cccnc2n1-c1ccc(CNC(=O)C2(c3ccc(C=O)c(O)c3)CC2)cc1` [Compound 82, N-(4-(2-(2-aminopyridin-3-yl)-3H-imidazo[4,5-b]pyridin-3-yl)benzyl)-1-(4-formyl-3-hydroxyphenyl)cyclopropane-1-carboxamide], at AKT1 E17K, the “AKT1 E17K IC50: Selectivity vs AKT1 WT” value is 29, the “AKT1 E17K IC50: Selectivity vs AKT2” value was above 400 and the IC50 was below 100 nM. Besides, at AKT1 WT, the half-maximal inhibitory concentration (IC50) is above 500 nM. Also, on AKT2, the IC50 is above 500 nM.

On to `Nc1ncccc1-c1nc2cccnc2n1-c1ccc(CNC(=O)c2ccc(O)c(C=O)c2)cc1` [Compound 83, N-({4-[2-(2-aminopyridin-3-yl)imidazo[4,5-b]pyridin-3-yl]phenyl}methyl)-3-formyl-4-hydroxybenzamide], for which, at AKT1 E17K, the “AKT1 E17K IC50: Selectivity vs AKT1 WT” value amounted to 10, the “AKT1 E17K IC50: Selectivity vs AKT2” value was determined as 99 and the IC50 was below 100 nM. Also, the half-inhibitory concentration (IC50) against AKT1 WT lay in the range of 100 to 500 nM. For the same compound, the 50% inhibitory concentration (IC50) against AKT2 is above 500 nM.

Take `Nc1ncccc1-c1nc2cccnc2n1-c1ccc(CNC(=O)c2ccc(C=O)c(O)c2)cc1` [Compound 84, N-({4-[2-(2-aminopyridin-3-yl)imidazo[4,5-b]pyridin-3-yl]phenyl}methyl)-4-formyl-3-hydroxybenzamide]: the “AKT1 E17K IC50: Selectivity vs AKT1 WT” value on AKT1 E17K amounted to 0.22. The “AKT1 E17K IC50: Selectivity vs AKT2” value on AKT1 E17K amounted to 4.8. The half-inhibitory concentration (IC50) was above 500 nM on AKT1 E17K, 100 to 500 nM on AKT1 WT and above 500 nM against AKT2.

For the compound `Nc1ncccc1-c1nc2ccc(-c3ccccc3)nc2n1-c1ccc(CNC(=O)c2ccc(C=O)c(O)c2F)cc1` [Compound 85, N-({4-[2-(2-aminopyridin-3-yl)-5-phenylimidazo[4,5-b]pyridin-3-yl]phenyl}methyl)-2-fluoro-4-formyl-3-hydroxybenzamide], at AKT1 E17K, the “AKT1 E17K IC50: Selectivity vs AKT1 WT” value is 1.3, the “AKT1 E17K IC50: Selectivity vs AKT2” value is 6.5 and the IC50 was below 100 nM. The concentration for half-maximal inhibition (IC50) against AKT1 WT was below 100 nM. For the same compound, the IC50 at AKT2 fell in the range of 100 to 500 nM.

Consider `Nc1ncccc1-c1nc2cccnc2n1-c1ccc(CCC(=O)Nc2ccc(C=O)c(O)c2)cc1` [Compound 86, 3-(4-(2-(2-aminopyridin-3-yl)-3H-imidazo[4,5-b]pyridin-3-yl)phenyl)-N-(4-formyl-3-hydroxyphenyl)propanamide], for which, at AKT1 E17K, the “AKT1 E17K IC50: Selectivity vs AKT1 WT” value amounted to 25. The “AKT1 E17K IC50: Selectivity vs AKT2” value at AKT1 E17K was determined as 74. Moreover, the results for the half-maximal inhibitory concentration (IC50) against AKT1 E17K, on AKT1 WT and at AKT2 were below 100 nM, above 500 nM and above 500 nM, respectively.

For the compound `Nc1ncccc1-c1nc2ccc(-c3ccccc3)nc2n1-c1ccc(CNc2cc(-c3ccc(C=O)c(O)c3)ccn2)cc1` [Compound 87, 4-(2-((4-(2-(2-aminopyridin-3-yl)-5-phenyl-3H-imidazo[4,5-b]pyridin-3-yl)benzyl)amino)pyridin-4-yl)-2-hydroxybenzaldehyde], at AKT1 E17K, the “AKT1 E17K IC50: Selectivity vs AKT1 WT” value is 0.72. Besides, the “AKT1 E17K IC50: Selectivity vs AKT2” value on AKT1 E17K is given as 1.6. Besides, the IC50 against AKT1 E17K, on AKT1 WT and against AKT2 was above 500 nM each time.
